Source: ChEMBL document CHEMBL5214988, “Design, Synthesis, and Biological Evaluation of 5-Formyl-pyrrolo[3,2-b]pyridine-3-carboxamides as New Selective, Potent, and Reversible-Covalent FGFR4 Inhibitors” (J Med Chem, 2022)

What was measured:
[1] = Half life in ICR mouse at 10 mg/kg, po measured upto 24 hrs by LC-MS/MS analysis; assay type: ADME, organism-based; conditions: in vivo
[2] = MRT (0 to t) in ICR mouse at 10 mg/kg, po measured upto 24 hrs by LC-MS/MS analysis; assay type: ADME, organism-based; conditions: in vivo
[3] = Metabolic stability in mouse liver microsomes assessed as half life incubated upto 60 mins in presence of NADPH by LC-MS/MS analysis; assay type: ADME, Microsome; conditions: 1 h
[4] = Observed clearance in ICR mouse at 2 mg/kg, iv measured upto 24 hrs by LC-MS/MS analysis; assay type: ADME, organism-based; conditions: in vivo
[5] = Cmax in ICR mouse at 10 mg/kg, po measured upto 24 hrs by LC-MS/MS analysis; assay type: ADME, organism-based; design: dose 10 mg/kg, time < 24 hrs, route po; conditions: in vivo
[6] = Tmax in ICR mouse at 2 mg/kg, iv measured upto 24 hrs by LC-MS/MS analysis; assay type: ADME, organism-based; conditions: in vivo
[7] = Tmax in ICR mouse at 10 mg/kg, po measured upto 24 hrs by LC-MS/MS analysis; assay type: ADME, organism-based; conditions: in vivo
[8] = MRT (0 to t) in ICR mouse at 2 mg/kg, iv measured upto 24 hrs by LC-MS/MS analysis; assay type: ADME, organism-based; conditions: in vivo
[9] = AUC (0 to infinity) in ICR mouse at 2 mg/kg, iv measured upto 24 hrs by LC-MS/MS analysis; assay type: ADME, organism-based; design: time < 24 hrs, dose 2 mg/kg, route iv; conditions: in vivo
[10] = AUC (0 to t) in ICR mouse at 10 mg/kg, po measured upto 24 hrs by LC-MS/MS analysis; assay type: ADME, organism-based; design: dose 10 mg/kg, time < 24 hrs, route po; conditions: in vivo
[11] = Cmax in ICR mouse at 2 mg/kg, iv measured upto 24 hrs by LC-MS/MS analysis; assay type: ADME, organism-based; design: time < 24 hrs, dose 2 mg/kg, route iv; conditions: in vivo
[12] = Half life in ICR mouse at 2 mg/kg, iv measured upto 24 hrs by LC-MS/MS analysis; assay type: ADME, organism-based; conditions: in vivo
[13] = AUC (0 to t) in ICR mouse at 2 mg/kg, iv measured upto 24 hrs by LC-MS/MS analysis; assay type: ADME, organism-based; design: time < 24 hrs, dose 2 mg/kg, route iv; conditions: in vivo
[14] = AUC (0 to infinity) in ICR mouse at 10 mg/kg, po measured upto 24 hrs by LC-MS/MS analysis; assay type: ADME, organism-based; design: time < 24 hrs, dose 10 mg/kg, route po; conditions: in vivo
[15] = Oral bioavailability in ICR mouse at 10 mg/kg measured upto 24 hrs by LC-MS/MS analysis; assay type: ADME, organism-based; conditions: in vivo

Q: With `C[C@@H](Oc1cc(NC(=O)c2cn(CCN3CCOCC3)c3cc(Br)c(C=O)nc23)ncc1C#N)c1c(Cl)cncc1Cl` as the compound, how does the half-life [1] read?
A: Its half-life is 196 min.

Q: And the MRT last at 24 h [2]?
A: Its MRT last at 24 h is 104 min.

Q: What about the t1/2 [3] of the same compound?
A: Its t1/2 is 696 min.

Q: What about the clearance [4] of the same compound?
A: Its clearance is 49.7 mL/min/kg.

Q: What about the Cmax [5] of the same compound?
A: The Cmax was 13.4 ng/mL.

Q: And the Tmax [6]?
A: Its Tmax is 4.98 min.

Q: And the Tmax [7]?
A: The Tmax was 23.4 min.

Q: And the MRT last at 24 h [8]?
A: Its MRT last at 24 h is 29.4 min.

Q: What about the AUC(0-inf) [9] of the same compound?
A: The AUC(0-inf) was 704 ng·h/mL.

Q: And the AUC(0-t) at 24 h [10]?
A: The AUC(0-t) at 24 h was 29.5 ng·h/mL.

Q: What about the Cmax [11] of the same compound?
A: The Cmax was 1640 ng/mL.

Q: What about the half-life [12] of the same compound?
A: The half-life was 45.6 min.

Q: And the AUC(0-t) at 24 h [13]?
A: The AUC(0-t) at 24 h was 702 ng·h/mL.

Q: What about the AUC(0-inf) [14] of the same compound?
A: The AUC(0-inf) was 38.6 ng·h/mL.

Q: And the bioavailability [15]?
A: Its bioavailability is 1.1%.
